# Results as given in ChEMBL document CHEMBL3885881, “DrugMatrix”.
# Species on record: Rattus norvegicus
# Test: DrugMatrix - Regimen: Daily Repeat
# Type: toxicity, organism-based, Sprague-Dawley
# Design: regimen Daily Repeat, gender Male, age 6-8 weeks
# Conditions: in vivo, po, route oral GAVAGE, vehicle 100 % WATER; for ABSOLUTE BASOPHIL / ABSOLUTE EOSINOPHIL / ABSOLUTE LYMPHOCYTE / ABSOLUTE MONOCYTE / ABSOLUTE SEGMENTED NEUTROPHIL / BASOPHIL / EOSINOPHIL / ERYTHROCYTE COUNT / HEMATOCRIT / HEMOGLOBIN / LEUKOCYTE COUNT / LYMPHOCYTE / MEAN CORPUSCULAR HEMOGLOBIN / MEAN CORPUSCULAR HEMOGLOBIN CONCENTRATION / MEAN CORPUSCULAR VOLUME / MONOCYTE / NEUTROPHIL / NUCLEATED RED BLOOD CELLS / PLATELET COUNT: tissue Blood; for ALANINE AMINOTRANSFERASE / ALBUMIN / ALKALINE PHOSPHATASE / ASPARTATE AMINOTRANSFERASE / BLOOD UREA NITROGEN / CARBON DIOXIDE / CHLORIDE / CHOLESTEROL / CREATINE PHOSPHOKINASE / CREATININE / GLUCOSE / LACTATE DEHYDROGENASE / LIPASE / PHOSPHORUS / POTASSIUM / SODIUM / TOTAL BILIRUBIN / TOTAL PROTEIN / URIC ACID: tissue Plasma
# [1] = 0 mg/kg, 72 h, dose level Control, time 3 day
# [2] = 0 mg/kg, 120 h, dose level Control, time 5 day
# [3] = 120 mg/kg, 72 h, dose level Low, time 3 day
smiles,measurement,setting,value
Cc1onc(-c2ccccc2Cl)c1C(=O)N[C@@H]1C(=O)N2[C@@H]1SC(C)(C)[C@@H]2C(=O)O [CLOXACILLIN],ABSOLUTE BASOPHIL,[1],0 CELLS/uL
same,ABSOLUTE EOSINOPHIL,[1],40 CELLS/uL
same,ABSOLUTE LYMPHOCYTE,[1],13599.5 CELLS/uL
same,ABSOLUTE MONOCYTE,[1],239.33 CELLS/uL
same,ABSOLUTE SEGMENTED NEUTROPHIL,[1],1021.17 CELLS/uL
same,BASOPHIL,[1],0%
same,EOSINOPHIL,[1],0.33%
same,ERYTHROCYTE COUNT,[1],5.71 x10E6/uL
same,HEMATOCRIT,[1],36.35%
same,HEMOGLOBIN,[1],14.05 G/DL
same,LEUKOCYTE COUNT,[1],14.9 x10E3/uL
same,LYMPHOCYTE,[1],91%
same,MEAN CORPUSCULAR HEMOGLOBIN,[1],24.62 pg
same,MEAN CORPUSCULAR HEMOGLOBIN CONCENTRATION,[1],38.65 G/DL
same,MEAN CORPUSCULAR VOLUME,[1],63.7 fL
same,MONOCYTE,[1],1.5%
same,NEUTROPHIL,[1],7.17%
same,NUCLEATED RED BLOOD CELLS,[1],0.33 /100WBC
same,PLATELET COUNT,[1],1225.5 x10E3/uL
same,ALANINE AMINOTRANSFERASE,[1],48.5 u/L
same,ALBUMIN,[1],4.18 G/DL
same,ALKALINE PHOSPHATASE,[1],390.83 u/L
same,ASPARTATE AMINOTRANSFERASE,[1],89 u/L
same,BLOOD UREA NITROGEN,[1],14.83 mg/dL
same,CARBON DIOXIDE,[1],24.83 mmol/L
same,CHLORIDE,[1],100.83 MEQ/L
same,CHOLESTEROL,[1],72.5 mg/dL
same,CREATINE PHOSPHOKINASE,[1],503 u/L
same,CREATININE,[1],0.2 mg/dL
same,GLUCOSE,[1],163 mg/dL
same,LACTATE DEHYDROGENASE,[1],316.83 u/L
same,LIPASE,[1],9.83 u/L
same,PHOSPHORUS,[1],11.57 mg/dL
same,POTASSIUM,[1],6.16 MEQ/L
same,SODIUM,[1],142.62 MEQ/L
same,TOTAL BILIRUBIN,[1],0.2 mg/dL
same,TOTAL PROTEIN,[1],5.8 G/DL
same,URIC ACID,[1],1.65 mg/dL
same,ABSOLUTE BASOPHIL,[2],0 CELLS/uL
same,ABSOLUTE EOSINOPHIL,[2],21 CELLS/uL
same,ABSOLUTE LYMPHOCYTE,[2],14288.5 CELLS/uL
same,ABSOLUTE MONOCYTE,[2],205.33 CELLS/uL
same,ABSOLUTE SEGMENTED NEUTROPHIL,[2],968.5 CELLS/uL
same,BASOPHIL,[2],0%
same,EOSINOPHIL,[2],0.17%
same,ERYTHROCYTE COUNT,[2],5.83 x10E6/uL
same,HEMATOCRIT,[2],36.53%
same,HEMOGLOBIN,[2],14.4 G/DL
same,LEUKOCYTE COUNT,[2],15.48 x10E3/uL
same,LYMPHOCYTE,[2],92%
same,MEAN CORPUSCULAR HEMOGLOBIN,[2],24.72 pg
same,MEAN CORPUSCULAR HEMOGLOBIN CONCENTRATION,[2],39.43 G/DL
same,MEAN CORPUSCULAR VOLUME,[2],62.68 fL
same,MONOCYTE,[2],1.33%
same,NEUTROPHIL,[2],6.5%
same,NUCLEATED RED BLOOD CELLS,[2],0.17 /100WBC
same,PLATELET COUNT,[2],1280.5 x10E3/uL
same,ALANINE AMINOTRANSFERASE,[2],50 u/L
same,ALBUMIN,[2],4.28 G/DL
same,ALKALINE PHOSPHATASE,[2],380.17 u/L
same,ASPARTATE AMINOTRANSFERASE,[2],82.67 u/L
same,BLOOD UREA NITROGEN,[2],15.33 mg/dL
same,CARBON DIOXIDE,[2],27.17 mmol/L
same,CHLORIDE,[2],100.33 MEQ/L
same,CHOLESTEROL,[2],60.67 mg/dL
same,CREATINE PHOSPHOKINASE,[2],441.5 u/L
same,CREATININE,[2],0.16 mg/dL
same,GLUCOSE,[2],146 mg/dL
same,LACTATE DEHYDROGENASE,[2],189.33 u/L
same,LIPASE,[2],9.17 u/L
same,PHOSPHORUS,[2],11.67 mg/dL
same,POTASSIUM,[2],6.86 MEQ/L
same,SODIUM,[2],142.33 MEQ/L
same,TOTAL BILIRUBIN,[2],0.2 mg/dL
same,TOTAL PROTEIN,[2],6.12 G/DL
same,URIC ACID,[2],1.82 mg/dL
same,ABSOLUTE BASOPHIL,[3],0 CELLS/uL
same,ABSOLUTE EOSINOPHIL,[3],0 CELLS/uL
same,ABSOLUTE LYMPHOCYTE,[3],13421.33 CELLS/uL
same,ABSOLUTE MONOCYTE,[3],92.33 CELLS/uL
same,ABSOLUTE SEGMENTED NEUTROPHIL,[3],1186.33 CELLS/uL
same,BASOPHIL,[3],0%
same,EOSINOPHIL,[3],0%
same,ERYTHROCYTE COUNT,[3],5.89 x10E6/uL
same,HEMATOCRIT,[3],36%
same,HEMOGLOBIN,[3],13.83 G/DL
same,LEUKOCYTE COUNT,[3],14.7 x10E3/uL
same,LYMPHOCYTE,[3],90.67%
same,MEAN CORPUSCULAR HEMOGLOBIN,[3],23.47 pg
same,MEAN CORPUSCULAR HEMOGLOBIN CONCENTRATION,[3],38.4 G/DL
same,MEAN CORPUSCULAR VOLUME,[3],61.07 fL
same,MONOCYTE,[3],0.67%
same,NEUTROPHIL,[3],8.67%
same,NUCLEATED RED BLOOD CELLS,[3],0 /100WBC
same,PLATELET COUNT,[3],1271.67 x10E3/uL
same,ALANINE AMINOTRANSFERASE,[3],68 u/L
same,ALBUMIN,[3],4.1 G/DL
same,ALKALINE PHOSPHATASE,[3],359 u/L
same,ASPARTATE AMINOTRANSFERASE,[3],111 u/L
same,BLOOD UREA NITROGEN,[3],15.33 mg/dL
same,CARBON DIOXIDE,[3],23 mmol/L
same,CHLORIDE,[3],103 MEQ/L
same,CHOLESTEROL,[3],79.33 mg/dL
same,CREATINE PHOSPHOKINASE,[3],603.33 u/L
same,CREATININE,[3],0.17 mg/dL
same,GLUCOSE,[3],150.33 mg/dL
same,LACTATE DEHYDROGENASE,[3],726 u/L
same,LIPASE,[3],9 u/L
same,PHOSPHORUS,[3],13.1 mg/dL
same,POTASSIUM,[3],6.07 MEQ/L
same,SODIUM,[3],143.5 MEQ/L
same,TOTAL BILIRUBIN,[3],0.17 mg/dL
same,TOTAL PROTEIN,[3],5.77 G/DL
same,URIC ACID,[3],1.8 mg/dL
